From patent publication US20250171420A1 (Monte Rosa Therapeutics, Inc., priority 2022, published 2025)

Tests used:
CRBN/DDB1 = CRBN/DDB1 (Homo sapiens, UniProt Q96SW2); experiment: HTRF binding assay (displacement of Cy5-thalidomide probe from CRBN/DDB1); conditions: CRBN/DDB1 2.5 nM, Cy5-Thalidomide 100 nM, 30 min; geometric mean; read-out: HTRF_Thali_Disp_DR_geo_IC50
Text: Binding of test compounds to CRBN/DDB1 was monitored in an HTRF assay using 1-[5-({2-[2-(2-{[2-(2,6-dioxopiperidin-3-yl)-1,3-dioxo-2,3-dihydro-1H-isoindol-4-yl]oxy}acetamido)ethoxy]ethyl}carbamoyl)pentyl]-3,3-dimethyl-2-[(1E,3E)-5-[(2E)-1,3,3-trimethyl-5-sulfo-2,3-dihydro-1H-indol-2-ylidene]penta-1,3-dien-1-yl]-3H-indol-1-ium-5-sulfonate as a fluorescent probe. In this assay, compounds displace the fluorescently labeled thalidomide-based probe bound to CRBN and fluorescence is monitored with increasing compound concentration. Assays were conducted in Greiner white 384 well HiBase plates (Cat. No 784075-25) in 10 μL total volume. A one pot detection solution of CRBN/DDB1 (2.5 nM), anti-His Terbium Cryptate Gold (1×, PerkinElmer Cat. #: 61HI2TLB), and Cy5-Thalidomide (100 nM, Tenova Cat.: T52461) was prepared in 20 mM HEPES, 20 mM NaCl, 0.2 mM TCEP, 0.2 mM EDTA, and 0.005% Tween20 was dispensed to each assay plate. Test compounds were stored in dry, ambient temperatures at 10 mM. A 10-point, 1:3 dilution series was prepared from 10 mM stock concentrations in Echo-compatible LDV plates. 10 nL of each compound dilution series was dispensed into assays wells using an Echo 650 (Labcyte inc. USA). 10 nL of 10 mM lenalidomide (Selleckchem Cat no. S1029) was transferred into the active-control wells for the assay and 10 nL of DMSO was transferred into the negative control wells. The assay was then allowed to incubate for 30 min at ambient temperature after transferring the test compounds. Plate measurements were taken on a Pherastar FSX (BMG Labtech, Germany) using the HTRF Red filter (Ex. 337 nm, em1: 620 nm, em2: 665 nm) (Flashes: 50, Integration time: 60-400 μs, Z-height: 10 mm, Ratio-multiplier: 10,000). Analysis, HTRF ratio and IC50 values were derived using KNIME analytics (KNIME Zurich) transformation and fitting within Collaborative Drug Discovery (Collaborative Drug Discovery USA) using a 4-parameter logistic fit. HTRF ratio calculation was performed using the following formula: […]
where Y represents the HTRF ratio response (as defined previously), X the compound concentration in μM, Ymin the minimum response plateau, Ymax the maximum response plateau, IC50 the concentration of agonist that gives a response half way between Ymin and Ymax and HillSlope the steepness of the family of curves. No fitting model constraints was applied on Ymin, or Ymax whilst IC50>0 and −0.5>HillSlope>−3
Ki values were derived from the geometric mean of the IC50 values using the Cheng-Prusoff transformation:
where [L] represents the concentration of fluorescent probe in μM, Kd the affinity (binding constant) of the fluorescent probe in units of μM and IC50 the concentration of agonist that gives a response halfway between Ymin and Ymax (as described in 1.2.1)
Analysis and IC50 values were derived using KNIME analytics (KNIME, Zurich) transformation and fitting within Collaborative Drug Discovery (Collaborative Drug Discovery, USA) as described in 1.2.1. Ki values were derived from the geometric mean of the IC50 values using the Cheng-Prusoff transformation as described in 2.2.2. Data was visualized in GraphPad Prism 8.1.2 (GraphPad, USA) and reported as mean and standard deviation. Microsoft Office Excel 2012 (Redmond, WA) was used for calculation of mean and standard deviation.
IC50 data are reported in Table 3 for compounds in Table 1. In Table 3 below, According to the code, A represents a IC50 value of ≤0.1 μM, B represents a IC50 value>0.1 μM and ≤1 μM, C represents an IC50 value>1 μM.

CK1α = target: T1, CK1α (Homo sapiens, UniProt P48729); experiment: CK1α NanoBit Assay (HiBiT-tagged CSNK1A1, HEK293 clonal lines); assay type: cell-based; conditions: HEK293 HiBiT-CSNK1A1/LgBiT cells, 24 h incubation
T1 construct: HEK293 clonal lines with CRISPR KI HiBiT tag on CSNK1A1
How it was run: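 HEK293 clones carrying a CRISPR knock-in HiBiT tag on CSNK1A1 and stably expressing LgBiT are treated with compound for 24 hours at 37° C, 5% CO2, then read by luminescence. Response is normalized as 100*(S−N)/(P−N) against plate negative and positive controls, and DC50 values are derived.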

T1 sequence (P48729 whole entry): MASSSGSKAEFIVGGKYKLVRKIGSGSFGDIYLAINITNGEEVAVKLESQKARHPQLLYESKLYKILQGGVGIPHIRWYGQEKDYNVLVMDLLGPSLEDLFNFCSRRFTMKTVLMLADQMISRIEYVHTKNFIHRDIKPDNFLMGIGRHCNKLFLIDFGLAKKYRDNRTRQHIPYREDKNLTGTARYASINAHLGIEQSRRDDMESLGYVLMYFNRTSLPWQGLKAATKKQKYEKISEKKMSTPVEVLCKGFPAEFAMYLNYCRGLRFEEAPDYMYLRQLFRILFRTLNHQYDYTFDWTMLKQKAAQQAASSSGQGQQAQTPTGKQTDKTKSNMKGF
T1 sequence (Q96SW2 whole entry, further chain): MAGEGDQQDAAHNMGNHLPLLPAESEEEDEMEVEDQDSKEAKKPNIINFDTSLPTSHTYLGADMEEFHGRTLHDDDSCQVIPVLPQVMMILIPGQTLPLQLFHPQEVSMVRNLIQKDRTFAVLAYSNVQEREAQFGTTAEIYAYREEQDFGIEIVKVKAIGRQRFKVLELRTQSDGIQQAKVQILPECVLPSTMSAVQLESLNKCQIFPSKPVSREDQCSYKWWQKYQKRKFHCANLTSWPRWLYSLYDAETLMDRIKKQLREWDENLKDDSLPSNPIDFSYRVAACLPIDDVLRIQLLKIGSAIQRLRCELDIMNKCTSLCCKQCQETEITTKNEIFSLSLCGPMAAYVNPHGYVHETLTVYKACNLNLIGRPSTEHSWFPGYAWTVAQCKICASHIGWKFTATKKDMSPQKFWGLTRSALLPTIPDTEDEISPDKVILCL
T1 sequence (Q16531 2-1140 partner limits assumed): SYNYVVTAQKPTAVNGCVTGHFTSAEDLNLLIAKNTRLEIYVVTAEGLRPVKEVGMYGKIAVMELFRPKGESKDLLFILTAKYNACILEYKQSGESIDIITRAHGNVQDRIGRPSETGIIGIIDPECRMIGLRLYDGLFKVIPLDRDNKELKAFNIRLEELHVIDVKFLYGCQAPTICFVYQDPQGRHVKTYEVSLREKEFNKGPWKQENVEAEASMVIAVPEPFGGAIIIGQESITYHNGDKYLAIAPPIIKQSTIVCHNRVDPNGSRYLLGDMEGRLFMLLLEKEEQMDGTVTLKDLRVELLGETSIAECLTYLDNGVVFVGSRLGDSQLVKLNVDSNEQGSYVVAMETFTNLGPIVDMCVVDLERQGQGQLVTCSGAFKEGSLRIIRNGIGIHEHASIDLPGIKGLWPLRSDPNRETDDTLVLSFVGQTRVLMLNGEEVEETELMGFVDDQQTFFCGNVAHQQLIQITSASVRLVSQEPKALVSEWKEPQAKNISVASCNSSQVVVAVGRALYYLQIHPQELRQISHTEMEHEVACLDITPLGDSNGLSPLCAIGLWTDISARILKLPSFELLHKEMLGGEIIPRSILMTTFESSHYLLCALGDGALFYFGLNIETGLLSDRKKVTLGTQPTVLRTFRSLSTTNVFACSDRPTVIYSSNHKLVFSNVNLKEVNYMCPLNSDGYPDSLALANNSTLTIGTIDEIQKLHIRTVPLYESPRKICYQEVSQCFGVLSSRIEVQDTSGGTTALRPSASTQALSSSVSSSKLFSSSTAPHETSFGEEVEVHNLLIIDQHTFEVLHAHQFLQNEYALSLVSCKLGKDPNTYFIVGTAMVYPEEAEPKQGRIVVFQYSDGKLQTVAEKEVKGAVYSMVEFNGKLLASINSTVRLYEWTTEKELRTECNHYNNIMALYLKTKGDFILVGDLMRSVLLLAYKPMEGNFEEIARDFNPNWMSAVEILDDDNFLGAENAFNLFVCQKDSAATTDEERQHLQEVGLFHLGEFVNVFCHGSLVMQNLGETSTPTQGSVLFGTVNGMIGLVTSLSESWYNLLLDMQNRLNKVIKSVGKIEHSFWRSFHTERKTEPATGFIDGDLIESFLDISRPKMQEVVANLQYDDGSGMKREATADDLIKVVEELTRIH
Sequence of CRBN/DDB1 (Q96SW2 whole entry, species assumed): as the sequence (Q96SW2 whole entry, further chain) above
Sequence of CRBN/DDB1 (Q16531 whole entry partner, species assumed): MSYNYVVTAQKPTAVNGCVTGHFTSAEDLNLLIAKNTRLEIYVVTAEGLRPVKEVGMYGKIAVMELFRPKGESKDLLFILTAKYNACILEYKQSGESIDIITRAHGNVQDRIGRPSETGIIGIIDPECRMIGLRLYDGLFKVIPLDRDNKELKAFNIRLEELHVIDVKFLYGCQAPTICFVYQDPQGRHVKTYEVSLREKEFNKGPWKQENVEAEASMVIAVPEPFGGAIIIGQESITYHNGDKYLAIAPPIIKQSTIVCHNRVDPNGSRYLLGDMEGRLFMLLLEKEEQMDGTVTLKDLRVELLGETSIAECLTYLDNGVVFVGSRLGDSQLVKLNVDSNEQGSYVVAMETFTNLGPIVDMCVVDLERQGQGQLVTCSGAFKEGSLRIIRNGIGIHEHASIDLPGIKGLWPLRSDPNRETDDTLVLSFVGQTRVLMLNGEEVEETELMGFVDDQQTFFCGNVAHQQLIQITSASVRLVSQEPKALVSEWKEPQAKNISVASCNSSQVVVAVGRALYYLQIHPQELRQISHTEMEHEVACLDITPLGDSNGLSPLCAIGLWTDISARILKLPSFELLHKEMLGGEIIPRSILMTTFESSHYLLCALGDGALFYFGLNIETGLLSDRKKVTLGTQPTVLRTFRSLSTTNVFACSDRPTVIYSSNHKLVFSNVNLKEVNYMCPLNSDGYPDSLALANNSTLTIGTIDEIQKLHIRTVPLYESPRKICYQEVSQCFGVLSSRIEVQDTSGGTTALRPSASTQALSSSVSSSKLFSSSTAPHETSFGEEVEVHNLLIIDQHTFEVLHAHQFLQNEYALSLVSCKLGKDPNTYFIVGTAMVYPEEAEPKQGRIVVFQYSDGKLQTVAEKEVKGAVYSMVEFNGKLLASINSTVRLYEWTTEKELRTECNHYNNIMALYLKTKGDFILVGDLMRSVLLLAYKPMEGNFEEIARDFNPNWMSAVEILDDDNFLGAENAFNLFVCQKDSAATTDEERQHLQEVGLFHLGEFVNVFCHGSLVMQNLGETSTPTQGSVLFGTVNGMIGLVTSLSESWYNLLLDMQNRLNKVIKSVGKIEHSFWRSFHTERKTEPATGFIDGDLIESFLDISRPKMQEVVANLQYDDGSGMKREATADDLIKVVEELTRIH

| SMILES | IC50 (CRBN/DDB1) | DC50 (CK1α) |
| --- | --- | --- |
| O=C1CCC(N2Cc3cc(NC(=O)N4CC5(CCC5)c5ccccc54)ccc3C2=O)C(=O)N1 (centres unmarked) [Compound 188] | 100 to 1000 nM | < 0.1 µM |
| CC1CN(C(=O)Nc2ccc3c(c2)CN(C2CCC(=O)NC2=O)C3=O)Cc2ccccc21 (centres unmarked) [Compound 191, N-(2-(2,6-dioxopiperidin-3-yl)-1-oxoisoindolin-5-yl)-4-methyl-3,4-dihydroisoquinoline-2(1H)-carboxamide] | 100 to 1000 nM | < 0.1 µM |
| O=C1CCC(N2Cc3cc(NC(=O)N4CC5(CCCC5)c5ccccc54)ccc3C2=O)C(=O)N1 (centres unmarked) [Compound 192, N-(2-(2,6-dioxopiperidin-3-yl)-1-oxoisoindolin-5-yl)spiro[cyclopentane-1,3′-indoline]-1′-carboxamide] | 100 to 1000 nM | < 0.1 µM |
| O=C1CCC(N2Cc3cc(NC(=O)N4CCc5cc(Cl)ccc54)ccc3C2=O)C(=O)N1 (centres unmarked) [Compound 197, 5-chloro-N-(2-(2,6-dioxopiperidin-3-yl)-1-oxoisoindolin-5-yl)indoline-1-carboxamide] | > 1000 nM | < 0.1 µM |
| CC(C)C1CN(C(=O)Nc2ccc3c(c2)CN(C2CCC(=O)NC2=O)C3=O)c2ccccc21 (centres unmarked) [Compound 203, N-(2-(2,6-dioxopiperidin-3-yl)-1-oxoisoindolin-5-yl)-3-isopropylindoline-1-carboxamide] | 100 to 1000 nM | < 0.1 µM |
| Cc1cc(C)c2c(c1)N(C(=O)Nc1ccc3c(c1)CN(C1CCC(=O)NC1=O)C3=O)CC2 (centres unmarked) [Compound 209] | 100 to 1000 nM | < 0.1 µM |
| CC1c2ccccc2CCN1C(=O)Nc1ccc2c(c1)CN(C1CCC(=O)NC1=O)C2=O (centres unmarked) [Compound 216, N-(2-(2,6-dioxopiperidin-3-yl)-1-oxoisoindolin-5-yl)-1-methyl-3,4-dihydroisoquinoline-2(1H)-carboxamide] | 100 to 1000 nM | < 0.1 µM |
| O=C1CCC(N2Cc3cc(NC(=O)N4CCOc5ccccc54)ccc3C2=O)C(=O)N1 (centres unmarked) [Compound 285, N-(2-(2,6-dioxopiperidin-3-yl)-1-oxoisoindolin-5-yl)-2H-benzo[b][1,4]oxazine-4(3H)-carboxamide] | 100 to 1000 nM | 0.1 to 1 µM |
| CN1CCN(C(=O)Nc2ccc3c(c2)CN(C2CCC(=O)NC2=O)C3=O)c2ccccc21 (centres unmarked) [Compound 286] | 100 to 1000 nM | 0.1 to 1 µM |
| C[C@@H]1Cc2ccccc2N1C(=O)Nc1ccc2c(c1F)CN(C1CCC(=O)NC1=O)C2=O (stereo partly drawn) [Compound 289, (2R)—N-(2-(2,6-dioxopiperidin-3-yl)-4-fluoro-1-oxoisoindolin-5-yl)-2-methylindoline-1-carboxamide] | 100 to 1000 nM | < 0.1 µM |
| O=C1CCC(N2Cc3cc(NC(=O)N4CCc5ccc(-n6cccn6)cc54)ccc3C2=O)C(=O)N1 (centres unmarked) [Compound 290] | 100 to 1000 nM | < 0.1 µM |
| O=C1CCC(N2Cc3cc(NC(=O)N4CCc5ccc(C6CC6)cc54)ccc3C2=O)C(=O)N1 (centres unmarked) [Compound 291, 6-cyclopropyl-N-(2-(2,6-dioxopiperidin-3-yl)-1-oxoisoindolin-5-yl)indoline-1-carboxamide] | 100 to 1000 nM | < 0.1 µM |
| O=C1CCC(N2Cc3cc(NC(=O)N4c5ccccc5CC4C(F)(F)F)ccc3C2=O)C(=O)N1 (centres unmarked) [Compound 292, N-(2-(2,6-dioxopiperidin-3-yl)-1-oxoisoindolin-5-yl)-2-(trifluoromethyl)indoline-1-carboxamide] | 100 to 1000 nM | < 0.1 µM |
| C[C@@H]1Cc2ccccc2N1C(=O)Nc1cc2c(cc1F)C(=O)N(C1CCC(=O)NC1=O)C2 (stereo partly drawn) [Compound 293, (2R)—N-(2-(2,6-dioxopiperidin-3-yl)-6-fluoro-1-oxoisoindolin-5-yl)-2-methylindoline-1-carboxamide] | 100 to 1000 nM | < 0.1 µM |
| COC[C@@H]1Cc2cc(C(F)(F)F)ncc2N1C(=O)Nc1ccc2c(c1)CN(C1CCC(=O)NC1=O)C2=O (stereo partly drawn) [Compound 294, (2S)—N-(2-(2,6-dioxopiperidin-3-yl)-1-oxoisoindolin-5-yl)-2-(methoxymethyl)-5-(trifluoromethyl)-2,3-dihydro-1H-pyrrolo[2,3-c]pyridine-1-carboxamide] | 100 to 1000 nM | < 0.1 µM |
| COC[C@H]1Cc2cc(C(F)(F)F)ncc2N1C(=O)Nc1ccc2c(c1)CN(C1CCC(=O)NC1=O)C2=O (stereo partly drawn) [Compound 295, (2R)—N-(2-(2,6-dioxopiperidin-3-yl)-1-oxoisoindolin-5-yl)-2-(methoxymethyl)-5-(trifluoromethyl)-2,3-dihydro-1H-pyrrolo[2,3-c]pyridine-1-carboxamide] | 100 to 1000 nM | < 0.1 µM |
| O=C1CCC(N2Cc3cc(NC(=O)N4c5ccc(C(F)(F)F)cc5CC45COC5)ccc3C2=O)C(=O)N1 (centres unmarked) [Compound 298] | 100 to 1000 nM | < 0.1 µM |
| COCC1c2ccc(C(F)F)cc2CN1C(=O)Nc1ccc2c(c1)CN(C1CCC(=O)NC1=O)C2=O (centres unmarked) [Compound 299, 5-(difluoromethyl)-N-(2-(2,6-dioxopiperidin-3-yl)-1-oxoisoindolin-5-yl)-1-(methoxymethyl)isoindoline-2-carboxamide] | 100 to 1000 nM | < 0.1 µM |
| O=C1CCC(N2Cc3cc(NC(=O)N4c5cccc(F)c5C[C@H]4COCC(F)(F)F)ccc3C2=O)C(=O)N1 (stereo partly drawn) [Compound 300, (2S)—N-(2-(2,6-dioxopiperidin-3-yl)-1-oxoisoindolin-5-yl)-4-fluoro-2-((2,2,2-trifluoroethoxy)methyl)indoline-1-carboxamide] | 100 to 1000 nM | < 0.1 µM |
| COCC1c2cc(C(F)(F)F)ccc2CN1C(=O)Nc1ccc2c(c1)CN(C1CCC(=O)NC1=O)C2=O (centres unmarked) [Compound 301] | 100 to 1000 nM | < 0.1 µM |
| O=C1CCC(N2Cc3cc(NC(=O)N4Cc5cc(C6CC6)ccc5C45COC5)ccc3C2=O)C(=O)N1 (centres unmarked) [Compound 302, 5-cyclopropyl-N-(2-(2,6-dioxopiperidin-3-yl)-1-oxoisoindolin-5-yl)spiro[isoindoline-1,3′-oxetane]-2-carboxamide] | 100 to 1000 nM | < 0.1 µM |
| O=C1CCC(N2Cc3cc(NC(=O)N4c5cccc(F)c5CC45COC5)ccc3C2=O)C(=O)N1 (centres unmarked) [Compound 304, N-(2-(2,6-dioxopiperidin-3-yl)-1-oxoisoindolin-5-yl)-4-fluorospiro[indoline-2,3′-oxetane]-1-carboxamide] | 100 to 1000 nM | < 0.1 µM |
| O=C1CCC(N2Cc3cc(NC(=O)N4c5ccccc5C5CC54)ccc3C2=O)C(=O)N1 (centres unmarked) [Compound 305, N-(2-(2,6-dioxopiperidin-3-yl)-1-oxoisoindolin-5-yl)-1a, 6b-dihydrocyclopropa[b]indole-2(1H)-carboxamide] | 100 to 1000 nM | < 0.1 µM |
| O=C1CCC(N2Cc3cc(NC(=O)N4c5ccc(F)cc5CC45COC5)ccc3C2=O)C(=O)N1 (centres unmarked) [Compound 306, N-(2-(2,6-dioxopiperidin-3-yl)-1-oxoisoindolin-5-yl)-5-fluorospiro[indoline-2,3′-oxetane]-1-carboxamide] | 100 to 1000 nM | < 0.1 µM |
| O=C1CCC(N2Cc3cc(NC(=O)N4c5cccc(F)c5C[C@H]4COC(F)F)ccc3C2=O)C(=O)N1 (stereo partly drawn) [Compound 308, (2S)-2-((difluoromethoxy)methyl)-N-(2-(2,6-dioxopiperidin-3-yl)-1-oxoisoindolin-5-yl)-4-fluoroindoline-1-carboxamide] | 100 to 1000 nM | < 0.1 µM |
